Data reported in patent US4792632A, “Bisacylphosphine oxides, the preparation and use thereof” (ESPE Fabrik Pharmazeutischer Praparate GmbH, priority 1984, dated 1988).

Legend:
[1] = UV/visible extinction at 400 nm; type: physicochemical; settings: for εmol at 400 nm: Table 1; for Extinction at 400 nm: Table 2
[2] = Uncured soft layer at surface of tooth filling composite; settings: 20 s exposure; for Soft Layer (amount of uncured material), upper surface: first of two values, upper surface of cylinder; for Soft Layer (amount of uncured material), lower surface: second of two values, lower surface of cylinder
Description: (§1) Tooth filling composites prepared according to Example 3 with the use of the photoinitiators listed in Table 3 are filled into cylinders (3 mm diameter, 3 mm height) in the middle of which the temperature can be measured during the polymerization. After 20 seconds of exposure to light from a commercial dental radiator (Elipar-Visio lamp/Espe) the structures are taken out and the soft layer is removed with toluene. From the weight difference the amount of uncured material in mg/cm^2 at the upper and lower surface of the cylinder is calculated. Moreover, the temperature course in time is followed by the thermosensor and a measuring instrument connected thereto.

[3] = Temperature course during polymerization of tooth filling composite; settings: 3 mm height, 20 s exposure; for Time for reaching Tmax: cylinder 3 mm diameter; for Tmax: middle of cylinder 3 mm diameter
Description: as §1

[4] = Attained thickness of cured layer of resin solution (curing depth) after storage, dental radiator 20 s; settings: for Layer Thickness after 1 month / Layer Thickness after 24 hrs: 0.5% by weight photoinitiator in solution I, 20 s exposure; for Layer Thickness after 1 month: stored 1 month in absence of light; for Layer Thickness after 24 hrs: stored 1 day in absence of light; for Thickness Loss: 24 hrs versus 1 month storage
Experimental: 70 parts by weight of bis-acryloxymethyl-tricyclo-[5.2.1.0.^2,6 ]-decane and
30 parts by weight of 2,2-bis-4-(3-methacryloxy-2-hydroxypropoxy)-phenylpropane (Bis-GMA)
are stirred while carefully heated until a clear solution I is formed.
The solution I is cooled to room temperature and 0.5% by weight of a photoinitiator (selected from those listed in Table 2) are added with stirring until the solution is clear.
The resulting solution is introduced into a cylinder (5 mm diameter, 8 mm length; for greater thicknesses 20 mm). Thereafter the solution is exposed to radiation from a commercial dental radiator (Elipar-Visio/Espe) for 20 seconds, the polymer is removed from the cylinder, the soft or gel-like, incompletely polymerized components are removed with a plastic spatula, and the attained thickness of the layer is measured. To this end the solutions are stored prior to polymerization for 1 day and 1 month, respectively, in the absence of light.

For Cc1ccc2ccccc2c1C(=O)P(=O)(C(=O)c1c(C)ccc2ccccc12)c1ccc(-c2ccccc2)cc1 [bis-(2-methyl-1-naphthoyl)-4-biphenylylphosphine oxide], the “εmol at 400 nm” value [1] was 1680.
With Cc1ccc2ccccc2c1C(=O)P(=O)(C(=O)c1c(C)ccc2ccccc12)c1ccccc1 [bis-(2-methyl-1-naphthoyl)phenylphosphine oxide] the “εmol at 400 nm” value [1] was 1040.
With Cc1ccc(C)c(P(=O)(C(=O)c2c(Cl)cccc2Cl)C(=O)c2c(Cl)cccc2Cl)c1 [Bis-(2,6-dichlorobenzoyl)-2,5-dimethylphenylphosphine Oxide] the “Soft Layer (amount of uncured material), upper surface” value [2] was 1.0 mg/cm^2, the “Soft Layer (amount of uncured material), lower surface” value [2] was 1.1 mg/cm^2 and the “Time for reaching Tmax” value [3] was 16 s. The Tmax [3] was 43.7 °C, the “Layer Thickness after 1 month” value [4] was 14.5 mm and the “Layer Thickness after 24 hrs” value [4] was 15 mm. For the same compound, the “Thickness Loss” value [4] was 3%, the “εmol at 400 nm” value [1] was 580 and the “Extinction at 400 nm” value [1] was 580.
With COc1cccc(OC)c1C(=O)P(=O)(C(=O)c1c(OC)cccc1OC)c1ccccc1 [bis-(2,6-dimethoxybenzoyl)phenylphosphine oxide] the “εmol at 400 nm” value [1] was 550.
In the case of CCOc1ccc(P(=O)(C(=O)c2c(Cl)cccc2Cl)C(=O)c2c(Cl)cccc2Cl)cc1 [bis-(2,6-dichlorobenzoyl)-4-ethoxyphenylphosphine oxide], the “εmol at 400 nm” value [1] is reported as 690.
With O=C(c1c(Cl)cccc1Cl)P(=O)(C(=O)c1c(Cl)cccc1Cl)c1ccccc1 [bis-(2,6-dichlorobenzoyl)phenylphosphine oxide] the “Layer Thickness after 1 month” value [4] was 14.5 mm, the “Layer Thickness after 24 hrs” value [4] was 15 mm and the “Thickness Loss” value [4] was 3%. For the same compound, the “εmol at 400 nm” value [1] was 607 and the “Extinction at 400 nm” value [1] was 607.
With Cc1cc(C)c(C(=O)P(=O)(c2ccccc2)c2ccccc2)c(C)c1 [2,4,6-Trimethylbenzoyldiphenylphosphine oxide, reference compound] the “Soft Layer (amount of uncured material), upper surface” value [2] was 1.8 mg/cm^2, the “Soft Layer (amount of uncured material), lower surface” value [2] was 2.0 mg/cm^2 and the “Time for reaching Tmax” value [3] was 18 s. The Tmax [3] was 39.8 °C.
With O=C(c1c(Cl)cccc1Cl)P(=O)(C(=O)c1c(Cl)cccc1Cl)c1ccc(-c2ccccc2)cc1 [bis-(2,6-dichlorobenzoyl)-4-biphenylylphosphine oxide] the “εmol at 400 nm” value [1] was 800.
With COc1c(Cl)c(C(=O)P(=O)(C(=O)c2c(Cl)c(OC)c(OC)c(OC)c2Cl)c2cc(C)ccc2C)c(Cl)c(OC)c1OC [bis-(2,6-dichloro-3,4,5-trimethoxybenzoyl)-2,5-dimethylphenylphosphine oxide] the “εmol at 400 nm” value [1] was 640.
With CCCCCCCCc1ccc(P(=O)(C(=O)c2c(Cl)cccc2Cl)C(=O)c2c(Cl)cccc2Cl)cc1 [bis-(2,6-dichlorobenzoyl)-4-octylphenylphosphine oxide] the “εmol at 400 nm” value [1] was 620.
In the case of CCCCCCCCCCP(=O)(C(=O)c1c(Cl)cccc1Cl)C(=O)c1c(Cl)cccc1Cl [bis-(2,6-dichlorobenzoyl)decylphosphine oxide], the “εmol at 400 nm” value [1] is reported as 470.
In the case of COc1cccc(OC)c1C(=O)P(=O)(C(=O)c1c(OC)cccc1OC)c1cc(C)ccc1C [bis-(2,6-dimethoxybenzoyl)-2,5-dimethylphenylphosphine oxide], the “εmol at 400 nm” value [1] is reported as 505.
With CCOc1ccc(P(=O)(C(=O)c2c(OC)ccc3ccccc23)C(=O)c2c(OC)ccc3ccccc23)cc1 [bis-(2-methoxy-1-naphthoyl)-4-ethoxyphenylphosphine oxide] the “εmol at 400 nm” value [1] was 2700.
With O=C(c1c(Cl)cccc1Cl)P(=O)(c1ccccc1)c1ccccc1 [2,6-Dichlorobenzoyl-diphenylphosphine oxide, reference compound] the “Layer Thickness after 1 month” value [4] was 6.5 mm, the “Layer Thickness after 24 hrs” value [4] was 7 mm and the “Thickness Loss” value [4] was 7%. The “Extinction at 400 nm” value [1] was 190.
For Cc1ccc(C)c(P(=O)(C(=O)c2c(Cl)cccc2Cl)c2cc(C)ccc2C)c1 [2,6-Dichlorobenzoyl-bis-(2,5-dimethylphenyl)phosphine oxide, reference compound], the “Layer Thickness after 1 month” value [4] was 4.1 mm, the “Layer Thickness after 24 hrs” value [4] was 5.1 mm and the “Thickness Loss” value [4] was 20%. The “Extinction at 400 nm” value [1] was 440.
With COc1ccc2ccccc2c1C(=O)P(=O)(C(=O)c1c(OC)ccc2ccccc12)c1cc(C)ccc1C [Bis-(2-methoxy-1-naphthoyl-2,5-dimethylphenylphosphineoxide] the “εmol at 400 nm” value [1] was 2550.
